Experiment: in vitro
Assay type: cell-based, Chinese hamster
Conditions: Chinese hamster
Method: Human HCT-116 colon carcinoma cells (CCL-247) were obtained from the American Type Culture Collection (ATCC) and Chinese hamster ovary CHO-K1 cells (ACC-110) were obtained from the German Collection of Microorganisms and Cell Cultures (DSMZ). Both cell lines were cultured under the conditions recommended by the respective depositor. Primary HUVEC (human umbilical vein endothelial cells; single donor) were purchased from PromoCell (Heidelberg, Germany) and cultured in Endothelial Cell Growth Medium (PromoCell) containing the following supplements: 2% FCS, 0.4% ECGS, 0.1 ng/ml EGF, 1 ng/ml bFGF, 90 μg/ml heparin, 1 μg/ml hydrocortisone.
Cells were seeded at 6×10^3 cells per well of 96-well plates (Corning CellBind®) in complete medium (180 μl) and directly treated with cystobactamides dissolved in methanol in a serial dilution. Compound were tested in duplicate for 5 d, as well as the internal solvent control. After 5 d incubation, 5 mg/ml MTT in PBS (20 μL) was added per well and it was further incubated for 2 h at 37° C.[7] The medium was then discarded and cells were washed with PBS (100 μl) before adding 2-propanol/10N HCl (250:1, v/v; 100 μl) in order to dissolve formazan granules. The absorbance at 570 nm was measured using a microplate reader (EL808, Bio-Tek Instruments Inc.).

For `CC(C)Oc1cc(C(=O)O)ccc1NC(=O)c1ccc(NC(=O)c2ccc(N)cc2)c(OC(C)C)c1O` [cystobactamide C, Cystobactamide C], the GI50 at 5 d was roughly 111 µM.

Source: patent US11225503B2, “Crystobactamides” (HELMHOLTZ-ZENTRUM FÜR INFEKTIONSFORSCHUNG GMBH, priority 2013, dated 2022)
